# Assays:
# HIV-LAI wild type = assay: Antiviral activity on HIV-LAI wild type; format: cell-based, HIV-1; conditions: HIV-LAI wild type
# Protocol: (§1) The antiviral activity, the expression and purification of the recombinant HIV-RT enzyme, the reverse transcriptase activities and the inhibition of RT were evaluated as described in WO 97/05 113.
# (§2) The antiviral activity of the compounds according to example 1 has been tested on various strains.
# [1] = Antiviral activity on HIV-LAI wild type; format: cell-based, HIV-1; conditions: HIV-LAI wild type test
# Protocol: as §1, §2
# HIV-2 D 194/PBMC = assay: Anti HIV activity, HIV-2 D 194 in PBMC; format: cell-based; conditions: Human immunodeficiency virus 2
# Protocol: as §1
# (§3) The compound of example 1 has been also tested on various HIV strains and primary cell cultures. The table 1 illustrates the activity of this compound on these strains.
# [2] = Anti HIV activity, HIV-2 D 194 in PBMC; format: cell-based; conditions: HIV-2 D 194/PBMC
# Protocol: as §1, §3
# [3] = Anti HIV-1 activity, HIV-1 IIIB in PBMC; format: cell-based; conditions: HIV-1 IIIB/PBMC
# Protocol: as §1, §3
# HIV-1 IIIB/PBMC = assay: Anti HIV-1 activity, HIV-1 IIIB in PBMC; format: cell-based; conditions: Human immunodeficiency virus 1
# Protocol: as §1, §3
# [4] = system: HIV-1 Bal/Mono/macrophages; assay: Anti HIV-1 activity, HIV-1 Bal in monocytes/macrophages; format: cell-based; conditions: Human immunodeficiency virus 1, Macrophage
# Protocol: as §1, §3
# [5] = as above; format: cell-based; conditions: HIV-1 Bal/Mono/macrophages
# Protocol: as §1, §3
# HIV-1 IIIIB/MT4 = assay: Anti HIV-1 activity, HIV-1 IIIB in MT4 cells; format: cell-based; conditions: Human immunodeficiency virus 1
# Protocol: as §1, §3
# [6] = Anti HIV-1 activity, HIV-1 IIIB in MT4 cells; format: cell-based; conditions: human; HIV-1 IIIIB/MT4
# Protocol: as §1, §3
# [7] = target: T1, recombinant HIV-RT enzyme (Human immunodeficiency virus type 1 group M subtype B, UniProt P03366); assay: Inhibition of the reverse transcriptase; format: biochemical
# T1 construct: the recombinant HIV-RT enzyme; made in house
# Protocol: as §1
# The IC50 of the compound of example 1 for the inhibition of the reverse transcriptase is 20 nM.
# HIV-ILai isolate = assay: Retrovirucidal effect (residual infectivity on P4 cells); format: cell-based, HIV-1; conditions: 3 hours with virions
# Protocol: The retrovirucidal effect and the reverse transcription were measured as described hereinafter.
# HIV-1 viral suspensions were obtained by coculture of MT4 cells and H9 cells chronically infected by HIV-ILai isolate. 200 μl of a cell supernatant containing viral particles (HIV-ILai: 100 TCID50) were incubated at room temperature with various concentrations of different inhibitors. After 3 hours, virions were washed through 0.02 μm anopore membrane in 1.5 mL Vectaspin tube (Whatman) for 10 minutes at 5 000 g. Each of the three subsequent washes was performed in the same conditions after the viral concentrate was refilled with 500 μL of RPMI medium. Then, the viral concentrate was readjusted to the initial volume with RPMI plus 10% foetal calf serum (FCS). The residual infectivity was assayed on P4 cells as described by CHARNEAU et al. (1994, J. Mol. Biol., 241, 651-662). Briefly, P4 cells were plated using 100 μL of DMEM medium plus 10% FCS in 96 plate multi-wells at 20×10^5 cells per mL. After overnight incubation at 37° C., the supernatant was discarded and the viral preparation (200 μL) was added. One day later the wells were washed three times in PBS. Each well was refilled with 200 μL of a reaction buffer containing 50 mM Tris-HCl pH 8.5, 100 mM 2-mercaptoethanol, 0.05% Triton X-100 and 5 mM 4-methylumbelliferyl β-D-galactopyranoside (MUG). After 3 hours at 37° C., the level of the reaction was measured in a fluorescence microplate reader.
# The retrovirucidal effect of the compound according to example 1 has been tested.
# [8] = system: HIV-1 novirapine resistant strain; assay: Antiviral activity on HIV-1 nevirapine resistant strain; format: cell-based; conditions: Human immunodeficiency virus 1
# Protocol: as §1
# (§4) On an HIV-1 novirapine resistant strain the activities of the compound of example 1 are as follows: […]
# [9] = as above; format: cell-based; conditions: HIV-1 novirapine resistant strain test
# Protocol: as §1, §4
# HIV-1 AZTres./MT4 = assay: Anti HIV-1 activity, HIV-1 AZT-resistant strain in MT4 cells; format: cell-based; conditions: Human immunodeficiency virus 1, MT4
# Protocol: as §1, §3
smiles,measurement,setting,value
"CCc1c(C)[nH]c(=O)c(N(C)C)c1Cc1cc(C)cc(C)c1 [Example 1, 3-dimethylamino-4-(3,5-dimethylbenzyl)-5-ethyl-6-methylpyridin-2(1H)-one]",S.I.,HIV-LAI wild type,> 33.333
same,IC50,HIV-LAI wild type; Human immunodeficiency virus 1,0.2 nM
same,CC50,[1],> 100000 nM
same,IC50,HIV-2 D 194/PBMC,> 1000 nM
same,CC50,[2],> 1000 nM
same,CC50,[3],> 1000 nM
same,IC50,HIV-1 IIIB/PBMC,0.58 nM
same,IC50,[4],0.004 nM
same,CC50,[5],> 1000 nM
same,IC50,HIV-1 IIIIB/MT4,2.4 nM
same,CC50,[6],> 1000 nM
same,IC50,[7],20 nM
same,% inhibition of infectivity,HIV-ILai isolate; 1 μm compound,83%
same,% inhibition of infectivity,HIV-ILai isolate; 10 μm compound,99%
same,inhibition at 0.01 µM,"HIV-ILai isolate; Human immunodeficiency virus 1, 10 nM compound",26%
same,inhibition at 0.1 µM,"HIV-ILai isolate; Human immunodeficiency virus 1, 100 nM compound",46%
same,IC50,[8],> 10000 nM
same,CC50,[9],> 10000 nM
same,IC50,HIV-1 AZTres./MT4,0.2 nM

# From US6683079B2, “3-(amino-or aminoalkyl) pyridinone derivatives and their use for the treatment of HIV related diseases” (Centre National de la Recherche Scientifique, priority 1998, dated 2004)
